Measurements from patent publication US20220361555A1, “INHIBITION OF UNDESIRED SENSORY EFFECTS BY THE COMPOUND CAMPHOR” (priority 2010, published 2022).
Where “and” joins values, the source holds several entries; their conditions need not be identical. Identical values can stand only once. Entries after “also recorded” stand apart in the source; their conditions may differ.

Tests used:
[1] = tested on: tongues of 18 participants; assay: Camphor in NEOBEE oil carrier pretreatment, burning sensation from nicotine strips; assay type: in vivo, human; set-up: Difference from control (burning from nicotine): scale not given here
Protocol: Camphor pretreatment was performed using two taste strips applied bilaterally (blinded, randomized) on the tongues of 18 participants. Test strips had 250 microliters of NEOBEE oil carrier with camphor concentrations of C ranging from 300 ppm to 1800 ppm. Control strips contained 250 microliters of carrier only (NEOBEE Oil). The pretreatment time was about 30 seconds. Participants then removed the taste strips and nicotine strips were placed in treated area. The nicotine was provided in an amount of 730 micrograms in 50 microliters for about 30 seconds. Each nicotine strip was then removed, followed by sensory evaluation of burning immediately, at 30 seconds, and 2 minutes. For sensory evaluation, 2 AFC and sensory irritation intensity ratings were generated.
A repeated measures analysis of variance (ANOVA) model was applied to analyze the data. The model includes terms for study participant, study time and concentration of camphor (see the Table 1). The SAS procedure “PROC MIXED” was used. The p value was for the comparison between each concentration with the control. The chi squared test was used for calculating significance for forced choice values.

nerve fibers = conditions: isolated mouse trachea model, Kichko et al.; cited from earlier work
[2] = tested on: tongues of human volunteers; assay: Pre-treatment with camphor (ethanol/water solution on a strip) on sensory irritation from nicotine; assay type: in vivo; conditions: 25, 50 or 100 ppm camphor on a strip for 30 seconds, then 0.1-0.3% nicotine; immediately and 30 seconds after initial exposure
Description: FIGS. 1 and 2 show the results of a study on the effect of pre-treatment with camphor on sensory irritation from nicotine. Camphor was applied to tongues of human volunteers prior to application of a nicotine solution. Randomized sides of tongues were selected for application of 20 microliters of 0 ppm, 25 ppm, 50 ppm, or 100 ppm of camphor from an ethanol/water solution on a strip (thus, about […], respectively) for 30 seconds. Then, the subjects sipped, rinsed, then spit 0.1%, 0.2%, or 0.3% of a nicotine solution for a 5 second application. Participants were then asked which side of the tongue has the strongest burning sensation. Responses were collected both immediately (within 5 seconds) (FIG. 1) and after 30 seconds (FIG. 2). Controls received no camphor, and a baseline was established at zero camphor.

[3] = tested on: mouth of subjects using oral tobacco; assay: Snus pouches with camphor, perceived burning in the mouth (2AFC); assay type: in vivo, human; conditions: snus pouch
Protocol: A further study was conducted to determine if camphor affected perceived burning in the mouth of subjects using oral tobacco. Participants were given two snus pouch samples to use simultaneously, one in each side of the mouth. One sample was a control pouch with no camphor added and the other contained various concentrations of camphor (2.3, 6, 12, 23, 46, and 69 nanograms, corresponding to […], based on tobacco weight, respectively).
The hand-made test samples were constructed using unflavored tobacco (12% oven volatiles) to prevent any possible interference of the flavor system with the objective of the study. In preparing the pouches, the camphor was dissolved in 95% ethanol, with the control pouches receiving the ethanol only. […]
After two (2) minutes, five (5) minutes, and ten (10) minutes of using the samples, participants were asked to indicate which side of the mouth was burning more. Responses were recorded on paper by the experimenter. […] Following each evaluation, participants were asked to give details regarding where the burning was felt and to provide any open-ended comments regarding their experience, which were recorded on paper by the experimenter. Participants repeated the sensory evaluation procedures an additional six (6) times, with a maximum of two (2) pairs being evaluated each day.

acetylcholine receptors = conditions: by inhibiting acetylcholine receptors, Park et al.; cited from earlier work
participants (mouth) = assay: Determination of irritation threshold of camphor solution in the mouth; assay type: in vivo, human; set-up: key to irritation perceived: Y: the participant felt irritation at the indicated concentration; N: no irritation was felt; conditions: for irritation perceived: 2 ml solution swished 10 seconds
Protocol: A further study was conducted to determine the threshold at which camphor itself would cause sensory irritation.
Each test used two milliliters (2 ml) of a camphor solution. The camphor was dissolved in ethanol and further diluted in water. Participants received sequentially increasing concentration of camphor. Nine participants received samples including food grade racemic camphor, with concentrations of 200, 300, 400, […] 1000, 2000, 4000, 6000 ppm (corresponding to about […] per sample, respectively).
Participants wore nose clips during evaluation. Each participant sipped the sample, swished it in the mouth for 10 seconds, then spat it out. Each participant then indicated whether irritation was perceived. Between evaluations of each sample, participants rinsed with water and waited for one minute.
The left-most column indicates the participant number of each individual participant.

[4] = Sensory effect of camphor in mineral oil in smokeless tobacco products; assay type: in vivo

## CC12CCC(CC1=O)C2(C)C (racemic) [camphor]
[1]; 600 ppm, 900 ppm and 1200 ppm camphor, immediately, at 30 seconds and at 120 seconds after nicotine
  sensory irritation from nicotine versus control: significant reduction in sensory irritation from nicotine
[1]; study time 0 sec, camphor 300 ppm in NEOBEE oil
  Difference from control (burning from nicotine): 4.31
[1]; study time 0 sec, camphor 600 ppm in NEOBEE oil
  Difference from control (burning from nicotine): −24.03
[1]; study time 0 sec, camphor 900 ppm in NEOBEE oil
  Difference from control (burning from nicotine): −22.64
[1]; study time 0 sec, camphor 1200 ppm in NEOBEE oil
  Difference from control (burning from nicotine): −19.99
[1]; study time 0 sec, camphor 1500 ppm in NEOBEE oil
  Difference from control (burning from nicotine): −8.62
[1]; study time 0 sec, camphor 1800 ppm in NEOBEE oil
  Difference from control (burning from nicotine): 7.29
[1]; study time 30 sec, camphor 300 ppm in NEOBEE oil
  Difference from control (burning from nicotine): −1.67
[1]; study time 30 sec, camphor 600 ppm in NEOBEE oil
  Difference from control (burning from nicotine): −18.00
[1]; study time 30 sec, camphor 900 ppm in NEOBEE oil
  Difference from control (burning from nicotine): −19.72
[1]; study time 30 sec, camphor 1200 ppm in NEOBEE oil
  Difference from control (burning from nicotine): −14.30
[1]; study time 30 sec, camphor 1500 ppm in NEOBEE oil
  Difference from control (burning from nicotine): −11.11
[1]; study time 30 sec, camphor 1800 ppm in NEOBEE oil
  Difference from control (burning from nicotine): 5.25
[1]; study time 120 sec, camphor 300 ppm in NEOBEE oil
  Difference from control (burning from nicotine): −2.12
[1]; study time 120 sec, camphor 600 ppm in NEOBEE oil
  Difference from control (burning from nicotine): −13.80
[1]; study time 120 sec, camphor 900 ppm in NEOBEE oil
  Difference from control (burning from nicotine): −17.69
[1]; study time 120 sec, camphor 1200 ppm in NEOBEE oil
  Difference from control (burning from nicotine): −11.93
[1]; study time 120 sec, camphor 1500 ppm in NEOBEE oil
  Difference from control (burning from nicotine): −2.38
[1]; study time 120 sec, camphor 1800 ppm in NEOBEE oil
  Difference from control (burning from nicotine): 2.16
Nerve fibers
  activation of nerve fibers induced by nicotine: effectively inhibit activation of nerve fibers
[2]
  perceived burning from nicotine after pre-treatment with camphor: significantly reduced perceived burning from nicotine
[3]; asked at 2, 5 and 10 minutes
  time at which the effect on oral burning was strongest: 10 min
[3]; printed as corresponding to 50 ppm
  quantity of camphor most effective in reducing oral burning: 12 nanogram
Acetylcholine receptors
  norepinephrine release from adrenal gland cells: inhibit norepinephrine release
Participants (mouth); 200 ppm camphor, one line per participant
  irritation perceived: Y (3×) and N (6×)
Participants (mouth); 300 ppm camphor, one line per participant
  irritation perceived: Y (3×) and N (6×)
Participants (mouth); 400 ppm camphor, one line per participant
  irritation perceived: Y (4×) and N (4×)
Participants (mouth); 500 ppm camphor, one line per participant
  irritation perceived: N (3×) and Y (3×)
Participants (mouth); 1000 ppm camphor, one line per participant
  irritation perceived: N and Y (2×)
Participants (mouth); 2000 ppm camphor, one line per participant
  irritation perceived: Y
Participants (mouth); 4000 ppm camphor, one line per participant
  irritation perceived: Y
Participants (mouth); 6000 ppm camphor, one line per participant
  irritation perceived: Y
Participants (mouth); n=9
  mean threshold for producing irritation: 655 ppm
Participants (mouth); one line per participant, first line given
  Notes (sensation described by participant): Very slight tingling at 200,; also recorded: Felt slight tingling at 2000,; also recorded: Felt some tingling at 1000,; also recorded: Tingling at 300, tingling no; also recorded: Slight tingling and burning at; also recorded: No Burning, slight tingling on; also recorded: Some burning at 200, stronger; also recorded: Felt slight tingling at 500,; also recorded: Some burning and stinging at
[4]
  concentration of camphor that does not exhibit a sensory effect of its own (smell, taste, extensive cooling): less than 1300 ppm
